Experimental data reported in ChEMBL document CHEMBL2406981, “Novel pyrazoline amidoxime and their 1,2,4-oxadiazole analogues: synthesis and pharmacological screening” (Bioorg Med Chem Lett, 2013).
Converted amounts (≈) assume the structure as drawn.

Legend:
Assay type in all cases: functional
Shigella flexneri [1] = assay: Antimicrobial activity against Shigella flexneri MTCC 1457
Escherichia coli [2] = assay: Antimicrobial activity against Escherichia coli MTCC 724
[3] = Antiinflammatory activity against heat-induced albumin denaturation at […] preincubated for 15 mins before heat induction by UV-vis spectrophotometer analysis
[4] = system: Radical scavenging activity; assay: Antioxidant activity assessed as DPPH free radical scavenging activity at 10 ug/ml after 20 mins
[5] = Antioxidant activity assessed as reducing power of ferric ion at 10 ug/ml after 20 mins; design: scale not given: the % may be the effect or the level left
Staphylococcus aureus [6] = assay: Antimicrobial activity against Staphylococcus aureus MTCC 96 at 100 ug/ml after 24 hrs by agar disc diffusion method; settings: MTCC 96, 24 h, read-out: DIZ
[7] = system: Radical scavenging activity; assay: Antioxidant activity assessed as DPPH free radical scavenging activity at 100 ug/ml after 20 mins
Aspergillus niger [8] = assay: Antimicrobial activity against Aspergillus niger MTCC 281
[9] = Antioxidant activity assessed as reducing power of ferric ion at 100 ug/ml after 20 mins; design: scale not given: the % may be the effect or the level left
[10] = Antioxidant activity against ferric chloride-induced lipid peroxidation using egg lecithin at 10 ug/ml after 1 hr
Aspergillus niger [11] = assay: Antimicrobial activity against Aspergillus niger MTCC 281 at 50 ug/ml after 24 hrs by agar disc diffusion method; settings: MTCC 281, 24 h, read-out: DIZ
[12] = Antioxidant activity against ferric chloride-induced lipid peroxidation using egg lecithin at 50 ug/ml after 1 hr
[13] = Antioxidant activity against ferric chloride-induced lipid peroxidation using egg lecithin at 100 ug/ml after 1 hr
Bacillus cereus [14] = assay: Antimicrobial activity against Bacillus cereus MTCC 8372 at 50 ug/ml after 24 hrs by agar disc diffusion method; settings: MTCC 8372, 24 h, read-out: DIZ
Staphylococcus aureus [15] = assay: Antimicrobial activity against Staphylococcus aureus MTCC 96
Aspergillus niger [16] = assay: Antimicrobial activity against Aspergillus niger MTCC 281 at 100 ug/ml after 24 hrs by agar disc diffusion method; settings: MTCC 281, 24 h, read-out: DIZ
Shigella flexneri [17] = assay: Antimicrobial activity against Shigella flexneri MTCC 1457 at 50 ug/ml after 24 hrs by agar disc diffusion method; settings: MTCC 1457, 24 h, read-out: DIZ
Klebsiella pneumoniae [18] = assay: Antimicrobial activity against Klebsiella pneumoniae MTCC 3384 at 100 ug/ml after 24 hrs by agar disc diffusion method; settings: MTCC 3384, 24 h, read-out: DIZ
Klebsiella pneumoniae [19] = assay: Antimicrobial activity against Klebsiella pneumoniae MTCC 3384
Aspergillus flavus [20] = assay: Antimicrobial activity against Aspergillus flavus MTCC 873
[21] = Antioxidant activity assessed as reducing power of ferric ion at 50 ug/ml after 20 mins; design: scale not given: the % may be the effect or the level left
Staphylococcus aureus [22] = assay: Antimicrobial activity against Staphylococcus aureus MTCC 96 at 50 ug/ml after 24 hrs by agar disc diffusion method; settings: MTCC 96, 24 h, read-out: DIZ
Bacillus cereus [23] = assay: Antimicrobial activity against Bacillus cereus MTCC 8372
Escherichia coli [24] = assay: Antimicrobial activity against Escherichia coli MTCC 724 at 100 ug/ml after 24 hrs by agar disc diffusion method; settings: MTCC 724, 24 h, read-out: DIZ
Shigella flexneri [25] = assay: Antimicrobial activity against Shigella flexneri MTCC 1457 at 100 ug/ml after 24 hrs by agar disc diffusion method; settings: MTCC 1457, 24 h, read-out: DIZ
Klebsiella pneumoniae [26] = assay: Antimicrobial activity against Klebsiella pneumoniae MTCC 3384 at 50 ug/ml after 24 hrs by agar disc diffusion method; settings: MTCC 3384, 24 h, read-out: DIZ
Aspergillus flavus [27] = assay: Antimicrobial activity against Aspergillus flavus MTCC 873 at 50 ug/ml after 24 hrs by agar disc diffusion method; settings: MTCC 873, 24 h, read-out: DIZ
[28] = system: Radical scavenging activity; assay: Antioxidant activity assessed as DPPH free radical scavenging activity at 50 ug/ml after 20 mins
Aspergillus flavus [29] = assay: Antimicrobial activity against Aspergillus flavus MTCC 873 at 100 ug/ml after 24 hrs by agar disc diffusion method; settings: MTCC 873, 24 h, read-out: DIZ
Escherichia coli [30] = assay: Antimicrobial activity against Escherichia coli MTCC 724 at 50 ug/ml after 24 hrs by agar disc diffusion method; settings: MTCC 724, 24 h, read-out: DIZ
Bacillus cereus [31] = assay: Antimicrobial activity against Bacillus cereus MTCC 8372 at 100 ug/ml after 24 hrs by agar disc diffusion method; settings: MTCC 8372, 24 h, read-out: DIZ

MIC (Shigella flexneri [1]) [µg/mL] | MIC (Escherichia coli [2]) [µg/mL] | MIC (Aspergillus niger [8]) [µg/mL] | MIC (Staphylococcus aureus [15]) [µg/mL] | MIC (Klebsiella pneumoniae [19]) [µg/mL] | MIC (Aspergillus flavus [20]) [µg/mL] | SMILES | inhibition [3] [%] | Activity [4] [%] | Activity [5] [%] | zone of inhibition at 100 µg/mL (Staphylococcus aureus [6]) [mm] | Activity [7] [%] | Activity [9] [%] | inhibition [10] [%] | zone of inhibition at 50 µg/mL (Aspergillus niger [11]) [mm] | inhibition [12] [%] | inhibition [13] [%] | zone of inhibition at 50 µg/mL (Bacillus cereus [14]) [mm] | zone of inhibition at 100 µg/mL (Aspergillus niger [16]) [mm] | zone of inhibition at 50 µg/mL (Shigella flexneri [17]) [mm] | zone of inhibition at 100 µg/mL (Klebsiella pneumoniae [18]) [mm] | further results
25 (≈ 58 µM) | 35 (≈ 81.2 µM) | 15 (≈ 34.8 µM) | 30 (≈ 69.6 µM) | 25 (≈ 58 µM) | 15 (≈ 34.8 µM) | COc1ccccc1-c1nc(C2CC(c3ccc(Cl)cc3)=NN2c2ccccc2)no1 (centres undefined) | 56.8 | 24 | 12 | 10 | 64 | 68 | 21 | 10 | 38 | 67 | 4 | 20 | 6 | 8 | Activity [21]: 23%; zone of inhibition at 50 µg/mL (Staphylococcus aureus [22]): 5 mm; MIC (Bacillus cereus [23]): 35 µg/mL (≈ 81.2 µM); zone of inhibition at 100 µg/mL (Escherichia coli [24]): 8 mm; zone of inhibition at 100 µg/mL (Shigella flexneri [25]): 8 mm; zone of inhibition at 50 µg/mL (Klebsiella pneumoniae [26]): 6 mm; zone of inhibition at 50 µg/mL (Aspergillus flavus [27]): 9 mm; Activity [28]: 30%; zone of inhibition at 100 µg/mL (Aspergillus flavus [29]): 10 mm; zone of inhibition at 50 µg/mL (Escherichia coli [30]): 4 mm; zone of inhibition at 100 µg/mL (Bacillus cereus [31]): 8 mm
10 (≈ 25.1 µM) | 10 (≈ 25.1 µM) | 10 (≈ 25.1 µM) | 20 (≈ 50.2 µM) | 15 (≈ 37.6 µM) | 10 (≈ 25.1 µM) | Oc1ccc(C2=NN(c3ccccc3)C(c3noc(-c4ccc(O)cc4)n3)C2)cc1 (centres undefined) | 69.7 | 31 | 12 | 12 | 86 | 76 | 34 | 14 | 58 | 78 | 6 | 22 | 14 | 16 | Activity [21]: 30%; zone of inhibition at 50 µg/mL (Staphylococcus aureus [22]): 8 mm; MIC (Bacillus cereus [23]): 25 µg/mL (≈ 62.7 µM); zone of inhibition at 100 µg/mL (Escherichia coli [24]): 20 mm; zone of inhibition at 100 µg/mL (Shigella flexneri [25]): 22 mm; zone of inhibition at 50 µg/mL (Klebsiella pneumoniae [26]): 10 mm; zone of inhibition at 50 µg/mL (Aspergillus flavus [27]): 12 mm; Activity [28]: 47%; zone of inhibition at 100 µg/mL (Aspergillus flavus [29]): 20 mm; zone of inhibition at 50 µg/mL (Escherichia coli [30]): 12 mm; zone of inhibition at 100 µg/mL (Bacillus cereus [31]): 10 mm
25 (≈ 62.4 µM) | 30 (≈ 74.8 µM) | 10 (≈ 24.9 µM) | 20 (≈ 49.9 µM) | 30 (≈ 74.8 µM) | 10 (≈ 24.9 µM) | Clc1ccc(-c2nc(C3CC(c4ccccc4)=NN3c3ccccc3)no2)cc1 (centres undefined) | 53.7 | 23 | 12 | 10 | 67 | 65 | 34 | 11 | 48 | 73 | 6 | 20 | 6 | 8 | Activity [21]: 22%; zone of inhibition at 50 µg/mL (Staphylococcus aureus [22]): 8 mm; MIC (Bacillus cereus [23]): 25 µg/mL (≈ 62.4 µM); zone of inhibition at 100 µg/mL (Escherichia coli [24]): 18 mm; zone of inhibition at 100 µg/mL (Shigella flexneri [25]): 10 mm; zone of inhibition at 50 µg/mL (Klebsiella pneumoniae [26]): 5 mm; zone of inhibition at 50 µg/mL (Aspergillus flavus [27]): 12 mm; Activity [28]: 42%; zone of inhibition at 100 µg/mL (Aspergillus flavus [29]): 14 mm; zone of inhibition at 50 µg/mL (Escherichia coli [30]): 4 mm; zone of inhibition at 100 µg/mL (Bacillus cereus [31]): 10 mm
15 (≈ 32.9 µM) | 20 (≈ 43.8 µM) | 10 (≈ 21.9 µM) | 15 (≈ 32.9 µM) | 20 (≈ 43.8 µM) | 10 (≈ 21.9 µM) | COc1ccc(C2=NN(c3ccccc3)C(c3noc(-c4ccc(OC)c(OC)c4)n3)C2)cc1 (centres undefined) | 29.9 | 29 | 13 | 18 | 67 | 74 | 34 | 16 | 49 | 76 | 12 | 30 | 10 | 18 | Activity [21]: 23%; zone of inhibition at 50 µg/mL (Staphylococcus aureus [22]): 10 mm; MIC (Bacillus cereus [23]): 10 µg/mL (≈ 21.9 µM); zone of inhibition at 100 µg/mL (Escherichia coli [24]): 16 mm; zone of inhibition at 100 µg/mL (Shigella flexneri [25]): 24 mm; zone of inhibition at 50 µg/mL (Klebsiella pneumoniae [26]): 8 mm; zone of inhibition at 50 µg/mL (Aspergillus flavus [27]): 16 mm; Activity [28]: 48%; zone of inhibition at 100 µg/mL (Aspergillus flavus [29]): 20 mm; zone of inhibition at 50 µg/mL (Escherichia coli [30]): 8 mm; zone of inhibition at 100 µg/mL (Bacillus cereus [31]): 16 mm
